Laboratory results published in the supplement of paper PMC10307832.

Experiments:
Assay in all cases: relative viability (nuclei count vs DMSO), 5 days (fraction); higher = more cells survive
[1] = compound: C1CNCCC1C2=CC(=NN2)C3=CC=NC=C3 + Cc1nc(Nc2ncc(C(=O)Nc3c(C)cccc3Cl)s2)cc(N2CCN(CCO)CC2)n1 [Dasatinib] (partner 0.075 µM)
In short: (§1)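 Lung cancer cell lines were seeded in 1536-well plates and dosed by pin tool the next day, with either a single drug or a fixed anchor-drug dose combined with five library-drug doses (not always all listed) spaced in √10 steps. Five days later, one step fixed the cells and stained their nuclei (final 0.05% Triton X-100, 1% formaldehyde, 1 ug/ml Hoechst), and nuclei were counted on 4× images. Relative viability is the nuclei count in treated wells divided by the count in vehicle wells, and each value is the median of duplicate plates.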

[2] = compound: C1CNCCC1C2=CC(=NN2)C3=CC=NC=C3 + NC(=O)Nc1cc(-c2cccc(F)c2)sc1C(=O)N[C@H]1CCCNC1 [AZD7762] (partner 0.2 µM)
In short: as §1

[3] = compound: C[C@@H](N)c1ccc(C(=O)Nc2ccnc3[nH]ccc23)cc1 + NC(=O)Nc1cc(-c2cccc(F)c2)sc1C(=O)N[C@H]1CCCNC1 [AZD7762] (partner 0.2 µM)
In short: as §1

Tanzisertib + Olaparib = compound: O[C@H]1CC[C@H](Nc2ncc3nc(Nc4c(F)cc(F)cc4F)n([C@H]4CCOC4)c3n2)CC1 [Tanzisertib] + O=C(c1cc(Cc2n[nH]c(=O)c3ccccc23)ccc1F)N1CCN(C(=O)C2CC2)CC1 [Olaparib] (partner 8 µM)
In short: as §1

Cell Line | relative viability ([1]; first compound 0.08 µM) | relative viability ([1]; first compound 0.8 µM) | relative viability ([1]; first compound 2.53 µM) | relative viability ([1]; first compound 8 µM) | relative viability ([2]; first compound 0.08 µM) | relative viability ([2]; first compound 0.8 µM) | relative viability ([2]; first compound 2.53 µM) | relative viability ([2]; first compound 8 µM) | relative viability ([3]; first compound 0.04 µM) | relative viability ([3]; first compound 0.1265 µM) | relative viability ([3]; first compound 0.4 µM) | relative viability ([3]; first compound 4 µM) | relative viability (Tanzisertib + Olaparib; first compound 0.08 µM) | relative viability (Tanzisertib + Olaparib; first compound 0.253 µM) | relative viability (Tanzisertib + Olaparib; first compound 0.8 µM) | relative viability (Tanzisertib + Olaparib; first compound 2.53 µM) | relative viability (Tanzisertib + Olaparib; first compound 8 µM) | relative viability ([3]; first compound 1.265 µM)
EPLC-272H | 0.392 | 0.348 | 0.393 | 0.415 | 0.18 | 0.261 | 0.26 | 0.212 | 0.0944 | 0.216 | 0.18 | 0.439 | 0.991 | 0.767 | 0.758 | 1.51 | 0.572 | –
ChaGo-K-1 | 0.58 | 0.657 | 0.643 | 0.627 | 0.886 | 0.876 | 0.926 | 0.753 | 0.832 | 0.862 | 0.978 | 0.816 | 0.511 | 0.422 | 0.453 | 0.45 | 0.438 | 0.838
NCI-H1651 | 0.381 | 0.404 | 0.348 | 0.486 | 0.463 | 0.427 | 0.488 | 0.543 | 0.484 | 0.493 | 0.574 | 0.675 | 0.206 | 0.182 | 0.196 | 0.2 | 0.175 | 0.737
PC-3 [JPC-3] | 0.982 | 1.1 | 1.01 | 0.966 | 0.879 | 0.817 | 0.689 | 0.936 | 1.09 | 0.87 | 0.925 | 0.912 | 1.18 | 1.21 | 1.19 | 1.18 | 1.04 | 1.05
LOU-NH91 | 0.527 | 0.572 | 0.624 | 0.545 | 0.797 | 0.739 | 0.853 | 0.773 | 0.622 | 0.782 | 0.751 | 0.518 | 0.948 | 0.896 | 0.989 | 0.89 | 0.727 | 0.628
PC-14 | 0.245 | 0.272 | 0.296 | 0.221 | 0.363 | 0.383 | 0.237 | 0.348 | 0.251 | 0.347 | 0.364 | 0.469 | 0.343 | 0.228 | 0.402 | 0.271 | 0.246 | 0.313
NCI-H2087 | 0.662 | 1.02 | 0.75 | 0.84 | 1.18 | 1.46 | 1.33 | 1.22 | 1.29 | 1.06 | 1.07 | 1.08 | 0.552 | 0.576 | 0.501 | 0.52 | 0.588 | 1.06
LU99A | 0.522 | 0.744 | 0.836 | 0.645 | 0.403 | 0.338 | 0.4 | 0.439 | – | 0.354 | 0.467 | 0.771 | 0.268 | 0.253 | 0.246 | 0.276 | 0.255 | 0.511
BEN | 0.266 | 0.286 | 0.339 | 0.326 | 0.546 | 0.634 | 0.675 | 0.772 | 0.607 | 0.879 | 0.841 | 0.663 | 1.05 | 0.968 | 1.05 | 1.12 | 0.997 | 0.913
NCI-H1975 | 0.405 | 0.417 | 0.492 | 0.413 | 0.758 | 0.599 | 0.742 | 0.679 | 0.593 | 0.613 | 0.688 | 0.434 | 0.898 | 0.836 | 0.807 | 0.818 | 0.752 | 0.513
NCI-H522 | 0.841 | 0.869 | 0.896 | 0.967 | 0.764 | 0.915 | 0.832 | 0.879 | 0.833 | 0.759 | 0.979 | 0.813 | 0.629 | 0.809 | 0.726 | 0.647 | 0.634 | 0.971
RERF-LC-KJ | 0.795 | 0.934 | 0.893 | 0.778 | 0.905 | 1.04 | 1.11 | 1.01 | 1.08 | 1.04 | 1.33 | 1.18 | 0.997 | 0.925 | 0.942 | 0.94 | 0.912 | 1.08
NCI-H441 | 0.465 | 0.673 | 0.797 | 0.576 | 0.967 | 1.18 | 0.948 | 1.19 | 1.29 | 0.841 | 1.49 | 1.13 | 0.642 | 0.611 | 0.545 | 0.496 | 0.535 | 1.21
LCLC-103H | 0.462 | 0.505 | 0.396 | 0.537 | 0.724 | 0.738 | 0.904 | 0.837 | 0.709 | 0.77 | 0.757 | 0.522 | 0.76 | 0.813 | 0.816 | 0.8 | 0.81 | 0.658
HCC-78 | 0.352 | 0.257 | 0.356 | 0.369 | 0.644 | – | 0.888 | 0.723 | 0.798 | 0.624 | 0.788 | 0.477 | 0.922 | 0.73 | 0.854 | 0.852 | 0.622 | 0.856
NCI-H1915 | 0.286 | 0.311 | 0.316 | 0.308 | 0.704 | 0.745 | 0.722 | 0.704 | – | 0.785 | 0.697 | 0.691 | 0.29 | 0.271 | 0.244 | 0.245 | 0.25 | –
